Where only a bound is given, the exact number is not on record here.

The test system of one assay is ECa-109 cell line. Put plainly: Antiproliferative activity against human ECA109 cells after 48 hrs by MTT assay. The format is functional, cell-based. The note with it: ECa-109, 48 h.
The test system of assay [1] is EC9706. In words: Antiproliferative activity against human EC9706 cells after 48 hrs by MTT assay. The note with it: EC9706, 48 h. The format is functional, cell-based.
In assay [2] the test system is EC9706. In words: Potency index, ratio of 5-fluorouracil IC50 to test compound IC50 for human EC9706 cells. It counts as functional.
A short description of assay [3]: Potency index, ratio of 5-fluorouracil IC50 to test compound IC50 for human ECA109 cells. It counts as functional.

What is called IC50 is the point on the concentration scale where inhibition reaches its midpoint. As for `COc1cc(C2SCC(=O)Nc3cc4c(cc32)OCO4)cc(OC)c1OC` (stereo not given), the concentration for half-maximal inhibition (IC50) in the assay with ECa-109 cell line was found to be 130 µM; in the assay on EC9706 [1], 70.9 µM.
With `CC1SC(c2ccc([N+](=O)[O-])cc2)c2cc3c(cc2NC1=O)OCO3` (stereo not given), the values for the 50% inhibitory concentration (IC50) with ECa-109 cell line and in the assay with EC9706 [1] were 50.4 µM and 34.7 µM, respectively.
Taken in the same sequence, the figures for `O=C1CSC(c2ccco2)c2cc3c(cc2N1)OCO3` (stereo not given) were 42 µM and 30.3 µM.
As for `CC1SC(c2cccc([N+](=O)[O-])c2)c2cc3c(cc2NC1=O)OCO3` (stereo not given), the IC50 in the assay on ECa-109 cell line was found to be 106 µM; in the assay with EC9706 [1] it was 88.4 µM.
Taken in the same sequence, the figures for `O=C1CSC(c2ccccc2)c2cc3c(cc2N1)OCO3` (stereo not given) were 38.7 µM and 43.2 µM.
Taken in the same sequence, the figures for `COc1cccc(C2SCC(=O)Nc3cc4c(cc32)OCO4)c1` (stereo not given) were 49.6 µM and 54.6 µM.
Taken in the same sequence, the figures for `COc1cc(OC)cc(C2SCC(=O)Nc3cc4c(cc32)OCO4)c1` (stereo not given) were 30.3 µM and 11.7 µM.
As to `CC1SC(c2ccc(Cl)cc2)c2cc3c(cc2NC1=O)OCO3` (stereo not given), the IC50 with ECa-109 cell line and with EC9706 [1] was above 200 µM in each case.
Regarding `O=C1CSC(c2cccc([N+](=O)[O-])c2)c2cc3c(cc2N1)OCO3` (stereo not given), the half-maximal inhibitory concentration (IC50) with ECa-109 cell line and in the assay on EC9706 [1] was above 200 µM in each case.
In the case of `COc1ccc(C2SCC(=O)Nc3cc4c(cc32)OCO4)cc1` (stereo not given), the IC50 stood at 33 µM with ECa-109 cell line and 16.4 µM in the assay with EC9706 [1].
On to `O=C1CSC(c2ccc(F)cc2)c2cc3c(cc2N1)OCO3` (stereo not given), for which the concentration for half-maximal inhibition (IC50) is above 200 µM in the assay on ECa-109 cell line and 106 µM in the assay on EC9706 [1].
Taken in the same sequence, the figures for `O=C1CSC(c2cccs2)c2cc3c(cc2N1)OCO3` (stereo not given) were 95.5 µM and 69.6 µM.
Taken in the same sequence, the figures for `Cc1ccccc1C1SCC(=O)Nc2cc3c(cc21)OCO3` (stereo not given) were 55.5 µM and 33.5 µM.
For `COc1ccc(C2SCC(=O)Nc3cc4c(cc32)OCO4)cc1Br` (stereo not given), the 50% inhibitory concentration (IC50) in the assay on ECa-109 cell line is 16.2 µM; with EC9706 [1] it was 8.23 µM. Moreover, the “Ratio IC50” value (with EC9706 [2]; in assay [3]) was 2 - 3 throughout.
With `Cc1ccc(C2SCC(=O)Nc3cc4c(cc32)OCO4)cc1` (stereo not given), the IC50 in the assay with ECa-109 cell line is 27.7 µM; with EC9706 [1], 17.1 µM.
Taken in the same sequence, the figures for `O=C1CSC(c2ccc([N+](=O)[O-])cc2)c2cc3c(cc2N1)OCO3` (stereo not given) were 42.3 µM and 24.9 µM.
With `Cc1ccc(C2SC(C)C(=O)Nc3cc4c(cc32)OCO4)cc1` (stereo not given), the half-inhibitory concentration (IC50) with ECa-109 cell line and in the assay on EC9706 [1] was above 200 µM throughout.
Regarding `O=C1CSC(c2ccc(Cl)cc2)c2cc3c(cc2N1)OCO3` (stereo not given), the results for the half-inhibitory concentration (IC50) with ECa-109 cell line and in the assay with EC9706 [1] were 36.2 µM and 34.4 µM, respectively.
Taken in the same sequence, the figures for `O=c1[nH]cc(F)c(=O)[nH]1` [FLUOROURACIL] were 30.2 µM and 23.3 µM.
